Data: patent US9428519B2, “Acylated derivative of homoharringtonine, preparation method therefor, and application thereof” (HANGZHOU BENSHENG PHARMACEUTICAL CO., LTD., priority 2011, dated 2016)
In brackets after ≈: the same amount, converted by molar mass.

Tests used:
[1] = system: RPMI8226 (multiple myeloma); assay: MTT growth inhibition of multiple myeloma cells, 72 h; type: cell-based, human
Protocol: Multiple myeloma and lymphoma cell lines: RPMI8226 (multiple myeloma), purchased from Fuxiang Bio-tech Co. Ltd., Shanghai, China.
(§1) Obtaining 6000 well-growing leukemia cells and inoculating them into wells of a 96-well cell culture plate. The culture medium is the 1640 cell culture medium containing 10% fetal bovine serum. After adding the homoharringtonine derivatives of different concentrations and mixing uniformly, placing the plate in a carbon dioxide cell incubator (5% CO2) at 37° C. and incubated for 72 hours. Then the viable cell concentration is determined by the MTT method. In this experiment, the cell viability in control group (not treated with any compound) is set as 100%. On such basis, the cell viability (%) after treatment and the 50% inhibiting concentration of the compound for the leukemia cell growth at 72 hours (IC50 value of 72 hours) are calculated.

[2] = system: SK-OV-3 (ovarian cancer cell); assay: MTT growth inhibition of human solid tumor cells, 72 h; type: cell-based
Protocol: (§2) Human solid tumor cell lines: Hep-2 (laryngeal carcinoma), A549 (human lung cancer), CaES-17 (esophageal cancer cell), PC-3 (prostate cancer), CNE (nasopharyngeal carcinoma cell), and SK-OV-3 (ovarian cancer cell), all of which are purchased from China Center For Type Culture Collection; RKO (human colon adenocarcinoma cell), MGC 803 (human gastric cancer cell), MG63 (osteosarcoma) and U87 MG (malignant glioma cell), all of which are purchased from Fuxiang Bio-tech Co. Ltd., Shanghai, China; PANC-1 (pancreatic cancer), Huh7 (human liver cancer cell), Becap37 (human breast cancer cell), and Hela (human cervical cancer cell), all of which are donated by Cancer Research Institute of Zhejiang University, China.
(§3) Obtaining 4000 well-growing human solid tumor cells and inoculating them into wells of a 96-well cell culture plate. The culture medium is DMEM High Glucose cell culture medium containing 10% fetal bovine serum. The plate is placed in a carbon dioxide cell incubator (5% CO2) at 37° C. and incubated for 24 hours. After adding the homoharringtonine derivatives of different concentration and mixing uniformly, the plate is placed in a carbon dioxide cell incubator (5% CO2) at 37° C. and incubated for 72 hours. Then the viable cell concentration is determined by the MTT method and the cell viability (%) after drug treatment is calculated. In this experiment, the cell viability of control group (not treated with any compound) is set as 100%.

[3] = system: Becap37 (human breast cancer cell); assay: as above; type: cell-based
Protocol: as §2, §3

[4] = system: Hep-2 (laryngeal carcinoma); assay: as above; type: cell-based
Protocol: as §2, §3

[5] = system: Hela (human cervical cancer cell); assay: as above; type: cell-based; details: MTT
Protocol: as §2, §3

[6] = system: RKO (human colon adenocarcinoma cell); assay: as above; type: cell-based; details: MTT
Protocol: as §2, §3

[7] = system: CNE (nasopharyngeal carcinoma cell); assay: as above; type: cell-based; details: MTT
Protocol: as §2, §3

[8] = system: CaES-17 (esophageal cancer cell); assay: as above; type: cell-based
Protocol: as §2, §3

PC-3 (prostate cancer) = assay: as above; type: cell-based; details: MTT
Protocol: as §2, §3

[9] = system: Huh7 (human liver cancer cell); assay: as above; type: cell-based
Protocol: as §2, §3

A549 (human lung cancer) = assay: as above; type: cell-based
Protocol: as §2, §3

[10] = system: MGC 803 (human gastric cancer cell); assay: as above; type: cell-based
Protocol: as §2, §3

[11] = system: PANC-1 (pancreatic cancer); assay: as above; type: cell-based
Protocol: as §2, §3

MG63 (osteosarcoma) = assay: as above; type: cell-based
Protocol: as §2, §3

[12] = system: U87 MG (malignant glioma cell); assay: as above; type: cell-based
Protocol: as §2, §3

[13] = system: Kasumi-1 (acute myeloid leukemia M2 type, AML-M2); assay: MTT growth inhibition of leukemia cells, 72 h; type: cell-based, human
Description: (§4) Leukemia cell lines: leukemia cell lines: K562/adr (drug-resistant, chronic myeloid leukemia, CML), NB4 (acute promyelocytic leukemia, AML), Kasumi-1 (acute myeloid leukemia M2 type, AML-M2), Jurkat (acute lymphoblastic leukemia, ALL), all of which are donated by Cancer Research Institute of Zhejiang University, China; and H9 (acute lymphoblastic leukemia, ALL), which is purchased from China Center for Type Culture Collection (CCTCC).
(§5) Reagents: The standard sample of homoharringtonine (HHT) is purchased from Taihua Natural Plant Pharmaceutical Co., Ltd., Shaanxi, China, the homoharringtonine derivatives of the present invention.
as §1

[14] = system: NB4 (acute promyelocytic leukemia, AML); assay: MTT growth inhibition of leukemia cells, 72 h; type: cell-based, human; details: MTT
Description: as §4, §5, §1

[15] = system: Jurkat (acute lymphoblastic leukemia, ALL); assay: MTT growth inhibition of leukemia cells, 72 h; type: cell-based, human
Description: as §4, §5, §1

[16] = system: K562/adr (drug-resistant, chronic myeloid leukemia, CML); assay: MTT growth inhibition of leukemia cells, 72 h; type: cell-based, human; details: MTT
Description: as §4, §5, §1

[17] = system: H9 (acute lymphoblastic leukemia, ALL); assay: MTT growth inhibition of leukemia cells, 72 h; type: cell-based, human; details: MTT
Description: as §4, §5, §1

## COC(=O)C[C@](O)(CCCC(C)(C)OC(=O)c1cnoc1C)C(=O)O[C@@H]1C(OC)=C[C@]23CCCN2CCc2cc4c(cc2[C@H]13)OCO4 [BS-HH-061]
[1]; MTT
  IC50 RPMI8226: 0.062 µg/mL (≈ 0.0947 µM)
  IC90 RPMI8226: 0.25 µg/mL (≈ 0.382 µM)
[2]; MTT
  IC50 SK-OV-3: 0.4 µg/mL (≈ 0.611 µM)
  IC90 SK-OV-3: >16 µg/mL
[3]
  IC50 Becap37: 0.17 µg/mL (≈ 0.26 µM)
  IC90 Becap37: 16 µg/mL (≈ 24.4 µM)
[4]
  IC50 Hep-2: 0.39 µg/mL (≈ 0.596 µM)
  IC90 Hep-2: >16 µg/mL
[5]
  IC50 Hela: 0.31 µg/mL (≈ 0.473 µM)
  IC90 Hela: 16 µg/mL (≈ 24.4 µM)
[6]
  IC50 RKO: 0.039 µg/mL (≈ 0.0596 µM)
  IC90 RKO: 0.24 µg/mL (≈ 0.367 µM)
[7]
  IC50 CNE: 0.42 µg/mL (≈ 0.642 µM)
  IC90 CNE: >16 µg/mL
[8]
  IC50 CaES-17: 0.38 µg/mL (≈ 0.58 µM)
  IC90 CaES-17: 16 µg/mL (≈ 24.4 µM)
PC-3 (prostate cancer)
  IC50 PC-3: 3.15 µg/mL (≈ 4.81 µM)
  IC90 PC-3: >16 µg/mL
[9]
  IC50 Huh7: 0.056 µg/mL (≈ 0.0855 µM)
  IC90 Huh7: 0.34 µg/mL (≈ 0.519 µM)
A549 (human lung cancer)
  IC50 A549: 0.52 µg/mL (≈ 0.794 µM)
  IC90 A549: >16 µg/mL
[10]
  IC50 MGC 803: 0.058 µg/mL (≈ 0.0886 µM)
  IC90 MGC 803: 0.16 µg/mL (≈ 0.244 µM)
[11]; MTT
  IC50 PANC-1: 0.21 µg/mL (≈ 0.321 µM)
  IC90 PANC-1: >16 µg/mL
MG63 (osteosarcoma); MTT
  IC50 MG 63: 0.093 µg/mL (≈ 0.142 µM)
  IC90 MG 63: 10.76 µg/mL (≈ 16.4 µM)
[12]
  IC50 U87 MG: 0.31 µg/mL (≈ 0.473 µM)
  IC90 U87 MG: 0.96 µg/mL (≈ 1.47 µM)
[13]; MTT
  IC50 Kasumi-1: 0.062 µg/mL (≈ 0.0947 µM)
  IC90 Kasumi-1: 0.23 µg/mL (≈ 0.351 µM)
[14]
  IC50 NB4: 0.07 µg/mL (≈ 0.107 µM)
  IC90 NB4: 0.14 µg/mL (≈ 0.214 µM)
[15]
  IC50 Jurkat: 0.071 µg/mL (≈ 0.108 µM)
  IC90 Jurkat: ≥ 16 µg/mL
[16]
  IC50 K562/adr: 0.24 µg/mL (≈ 0.367 µM)
  IC90 K562/adr: 12.57 µg/mL (≈ 19.2 µM)
[17]
  IC50 H9: 0.14 µg/mL (≈ 0.214 µM)
  IC90 H9: 0.25 µg/mL (≈ 0.382 µM)

## COC(=O)C[C@@](CCCC(C)(C)OC(=O)c1cccs1)(OC(=O)c1cccs1)C(=O)O[C@@H]1C(OC)=C[C@]23CCCN2CCc2cc4c(cc2[C@H]13)OCO4 [BS-HH-0572]
[1]; Homo sapiens, RPMI-8226, MTT
  IC50: 0.155 µg/mL (≈ 0.202 µM)
  IC90: 1.13 µg/mL (≈ 1.48 µM)
[2]; Homo sapiens, SK-OV-3, MTT
  IC50: 0.98 µg/mL (≈ 1.28 µM)
  IC90: > 16 µg/mL
[3]; Homo sapiens
  IC50: 0.2 µg/mL (≈ 0.261 µM)
  IC90: 9.75 µg/mL (≈ 12.7 µM)
[4]; Homo sapiens, HEp-2
  IC50: 0.23 µg/mL (≈ 0.3 µM)
  IC90: > 16 µg/mL
[5]; Homo sapiens, HeLa
  IC50: 0.45 µg/mL (≈ 0.588 µM)
  IC90: 11.5 µg/mL (≈ 15.1 µM)
[6]; Homo sapiens
  IC50: 0.12 µg/mL (≈ 0.157 µM)
  IC90: 0.56 µg/mL (≈ 0.731 µM)
[7]; Homo sapiens
  IC50: 0.35 µg/mL (≈ 0.457 µM)
  IC90: 14.3 µg/mL (≈ 18.6 µM)
[8]; Homo sapiens, CaEs17
  IC50: 0.74 µg/mL (≈ 0.966 µM)
  IC90: 16 µg/mL (≈ 20.9 µM)
PC-3 (prostate cancer); Homo sapiens
  IC50: 1.84 µg/mL (≈ 2.4 µM)
  IC90: > 16 µg/mL
[9]; Homo sapiens, Huh-7
  IC50: 0.17 µg/mL (≈ 0.222 µM)
  IC90: 1.7 µg/mL (≈ 2.22 µM)
A549 (human lung cancer); Homo sapiens, A549
  IC50: 0.48 µg/mL (≈ 0.627 µM)
  IC90: > 16 µg/mL
[10]; Homo sapiens, MGC-803
  IC50: 0.24 µg/mL (≈ 0.313 µM)
  IC90: 1.62 µg/mL (≈ 2.12 µM)
[11]; Homo sapiens, PANC-1, MTT
  IC50: 0.43 µg/mL (≈ 0.561 µM)
  IC90: 12.6 µg/mL (≈ 16.4 µM)
MG63 (osteosarcoma); Homo sapiens, MG-63, MTT
  IC50: 0.2 µg/mL (≈ 0.261 µM)
  IC90: 4.75 µg/mL (≈ 6.2 µM)
[12]; Homo sapiens, U-87 MG
  IC50: 0.23 µg/mL (≈ 0.3 µM)
  IC90: 0.99 µg/mL (≈ 1.29 µM)
[13]; Homo sapiens, Kasumi 1, MTT
  IC50: 0.065 µg/mL (≈ 0.0849 µM)
  IC90: 0.4 µg/mL (≈ 0.522 µM)
[14]; Homo sapiens
  IC50: 0.12 µg/mL (≈ 0.157 µM)
  IC90: 0.4 µg/mL (≈ 0.522 µM)
[15]; Homo sapiens, Jurkat
  IC50: 0.11 µg/mL (≈ 0.144 µM)
  IC90: 7.5 µg/mL (≈ 9.79 µM)
[16]; Homo sapiens, K562/Adr
  IC50: 0.32 µg/mL (≈ 0.418 µM)
  IC90: 16 µg/mL (≈ 20.9 µM)
[17]; Homo sapiens
  IC50: 0.21 µg/mL (≈ 0.274 µM)
  IC90: 0.48 µg/mL (≈ 0.627 µM)
